“Also recorded” adds a separate entry of the source.
Experiments:
[1] = tested on: strain expressing toxic levels of Aβ (ssAβ 1-42 strain); assay: Clioquinol rescue: growth in liquid culture of ssAβ 1-42 strain and YFP control strain (Bioscreen, OD600); type: cell-based, Saccharomyces cerevisiae; conditions: FIG. 4
Method: To further test the effect of clioquinol, a control strain and a strain expressing toxic levels of Aβ were grown in liquid culture with various concentrations of the compound.
To generate ssAβ1-42 screening strains the ssAβ1-42 construct was moved to a pAG Gal p305 expression vector (S. Alberti, A. D. Gitler, S. Lindquist, A suite of Gateway cloning vectors for highthroughput genetic analysis in Saccharomyces cerevisiae. Yeast 24, 913 (2007)). The plasmid was digested using BstX1, gel purified and transformed into W303. The transformation was carried out in duplicate and the level of growth of 16 transformants each was tested on synthetic deficient media lacking leucine with galactose. Two strains from the independent transformations where chosen as screening strains based on their robust yet intermediate toxicity that would allow for the identification of both suppressors and enhancers. […] The control strain for wild type yeast growth is carrying a Gal inducible YFP integrated in the same fashion as the ssAβ1-42 constructs. For spotting assays strains were grown over night at 30° C. in 3 ml SD media lacking the relevant amino acids and containing glucose. Cell concentrations (OD600) were adjusted in a 96-well plate to that of the strain with the lowest concentration. Cells were then 5 fold serially diluted and spotted on SD media containing glucose (Uninduced) and galactose (Induced). Plates were incubated at 30° C. for 2 (glucose) or 3 days (galactose).
Yeast strains were grown overnight to saturation in synthetic medium with glucose as the carbon source after inoculation from a colony. These cultures were used to inoculate raffinose cultures. Raffinose cultures in log phase growth (OD600 0.7-0.9) were diluted to an OD600 of 0.03 in synthetic medium with galactose as the carbon source, and […] of the cell suspension was distributed to each well of a Bioscreen plate. […] of clioquinol (Sigma C8133, ˜95%), dissolved in DMSO at 100 times the final intended concentration, was added to each well. […]

[2] = tested on: GAL1-induced expression (GAL controlled YFP); assay: GAL1-induced expression measured by flow cytometry of GAL controlled YFP; type: cell-based, Saccharomyces cerevisiae; conditions: flow cytometry of GAL controlled YFP (data not shown)

**Q.** What does the source list for `Oc1c(I)cc(Cl)c2cccnc12` [clioquinol]?
**A.** toxicity at higher concentrations ([1]; higher concentrations, ssAβ 1-42 strain and YFP control strain): toxic to both strains; growth at the optimal concentration compared with control strain ([1]; optimal concentration, control strain expressing YFP): nearly as robust as that of the control strain; also recorded: restored growth levels to those of a control strain expressing YFP; growth of the Aβ expressing strain (dose dependence of rescue) ([1]; ssAβ 1-42 strain in inducing (galactose) media, various concentrations): improved the growth of the Aβ expressing strain in a dose dependent manner; also recorded: rescued growth levels in a dose dependent manner; effect on GAL1-induced expression [2]: did not diminish GAL1-induced expression

— patent US9677079B2, “Yeast cells expressing amyloid beta and uses therefor” (Whitehead Insititute for Biomedical Research, priority 2010, dated 2017)
